Laboratory results reported in ChEMBL document CHEMBL5579792, “Natural products fragment-based design and synthesis of a novel pentacyclic ring system as potential MAPK inhibitor” (Bioorg Med Chem Lett, 2024).
Activity calls are given as the source filed them. The calls are words filed in the database; no cut-off is given here.

Experiments:
[1] = system: A549; experiment: Antiproliferative activity against human A549 cells assessed as inhibition of cell growth by MTT assay; assay type: functional, cell-based
[2] = system: MDA-MB-231; experiment: Antiproliferative activity against human MDA-MB-231 cells assessed as inhibition of cell growth by MTT assay; assay type: functional, cell-based
[3] = system: HCT-116; experiment: Antiproliferative activity against human HCT-116 cells assessed as inhibition of cell growth by MTT assay; assay type: functional, cell-based
[4] = system: A549; experiment: Antiproliferative activity against human A549 cells assessed as inhibition of cell growth measured after 24 hrs by MTT assay; assay type: functional, cell-based; conditions: A549, 24 h
[5] = system: A549; experiment: Antiproliferative activity against human A549 cells assessed as inhibition of cell growth measured after 48 hrs by MTT assay; assay type: functional, cell-based; conditions: A549, 48 h
[6] = system: A549; experiment: Antiproliferative activity against human A549 cells assessed as inhibition of cell growth measured after 72 hrs by MTT assay; assay type: functional, cell-based; conditions: A549, 72 h
[7] = system: A549; experiment: Inhibition of cell migration in human A549 cells at 0.11 uM measured after 24 hrs by scratch assay relative to control; assay type: functional
[8] = system: A549; experiment: Inhibition of cell migration in human A549 cells at 0.22 uM measured after 24 hrs by scratch assay relative to control; assay type: functional
[9] = system: A549; experiment: Inhibition of cell migration in human A549 cells at 0.34 uM measured after 24 hrs by scratch assay relative to control; assay type: functional
[10] = system: A549; experiment: Inhibition of cell migration in human A549 cells at 0.11 uM measured after 48 hrs by scratch assay relative to control; assay type: functional
[11] = system: A549; experiment: Inhibition of cell migration in human A549 cells at 0.22 uM measured after 48 hrs by scratch assay relative to control; assay type: functional
[12] = system: A549; experiment: Inhibition of cell migration in human A549 cells at 0.34 uM measured after 48 hrs by scratch assay relative to control; assay type: functional
[13] = system: A549; experiment: Induction of cell cycle arrest in human A549 cells assessed as accumulation at G0/G1 phase at 0.11 uM incubated for 48 hrs by PI staining based flow cytometry analysis (reference value: 84.47%); assay type: functional
[14] = system: A549; experiment: Induction of cell cycle arrest in human A549 cells assessed as accumulation at G2/M phase at 0.11 uM incubated for 48 hrs PI staining based by flow cytometry analysis (reference value: 1.14%); assay type: functional
[15] = system: A549; experiment: Induction of cell cycle arrest in human A549 cells assessed as accumulation at S phase at 0.11 uM incubated for 48 hrs by PI staining based flow cytometry analysis (reference value: 12.105%); assay type: functional
[16] = system: A549; experiment: Induction of cell cycle arrest in human A549 cells assessed as accumulation at G0/G1 phase at 0.22 uM incubated for 48 hrs by PI staining based flow cytometry analysis (reference value: 84.47%); assay type: functional
[17] = system: A549; experiment: Induction of cell cycle arrest in human A549 cells assessed as accumulation at G2/M phase at 0.22 uM incubated for 48 hrs by PI staining based flow cytometry analysis (reference value: 1.14%); assay type: functional
[18] = system: A549; experiment: Induction of cell cycle arrest in human A549 cells assessed as accumulation at S phase at 0.22 uM incubated for 48 hrs by PI staining based flow cytometry analysis (reference value: 12.105%); assay type: functional
[19] = system: A549; experiment: Induction of cell cycle arrest in human A549 cells assessed as accumulation at G0/G1 phase at 0.34 uM incubated for 48 hrs by PI staining based flow cytometry analysis (reference value: 84.47%); assay type: functional
[20] = system: A549; experiment: Induction of cell cycle arrest in human A549 cells assessed as accumulation at G2/M phase at 0.34 uM incubated for 48 hrs by PI staining based flow cytometry analysis (reference value: 1.14%); assay type: functional
[21] = system: A549; experiment: Induction of cell cycle arrest in human A549 cells assessed as accumulation at S phase at 0.34 uM incubated for 48 hrs by PI staining based flow cytometry analysis (reference value: 12.105%); assay type: functional
[22] = system: A549; experiment: Induction of apoptosis in human A549 cells assessed as live cells at 0.11 uM incubated for 48 hrs by Annexin V/PI staining based flow cytometry analysis (reference value: 90.7%); assay type: functional
[23] = system: A549; experiment: Induction of apoptosis in human A549 cells assessed as early apoptotic cells at 0.11 uM incubated for 48 hrs by Annexin V/PI staining based flow cytometry analysis (reference value: 1.79%); assay type: functional
[24] = system: A549; experiment: Induction of apoptosis in human A549 cells assessed as late apoptotic cells at 0.11 uM incubated for 48 hrs by Annexin V/PI staining based flow cytometry analysis (reference value: 2.96%); assay type: functional
[25] = system: A549; experiment: Induction of apoptosis in human A549 cells assessed as dead cells at 0.11 uM incubated for 48 hrs by Annexin V/PI staining based flow cytometry analysis (reference value: 4.58%); assay type: functional
[26] = system: A549; experiment: Induction of apoptosis in human A549 cells assessed as live cells at 0.22 uM incubated for 48 hrs by Annexin V/PI staining based flow cytometry analysis (reference value: 90.7%); assay type: functional
[27] = system: A549; experiment: Induction of apoptosis in human A549 cells assessed as early apoptotic cells at 0.22 uM incubated for 48 hrs by Annexin V/PI staining based flow cytometry analysis (reference value: 1.79%); assay type: functional
[28] = system: A549; experiment: Induction of apoptosis in human A549 cells assessed as late apoptotic cells at 0.22 uM incubated for 48 hrs by Annexin V/PI staining based flow cytometry analysis (reference value: 2.96%); assay type: functional
[29] = system: A549; experiment: Induction of apoptosis in human A549 cells assessed as dead cells at 0.22 uM incubated for 48 hrs by Annexin V/PI staining based flow cytometry analysis (reference value: 4.58%); assay type: functional
[30] = system: A549; experiment: Induction of apoptosis in human A549 cells assessed as live cells at 0.34 uM incubated for 48 hrs by Annexin V/PI staining based flow cytometry analysis (reference value: 90.7%); assay type: functional
[31] = system: A549; experiment: Induction of apoptosis in human A549 cells assessed as early apoptotic cells at 0.34 uM incubated for 48 hrs by Annexin V/PI staining based flow cytometry analysis (reference value: 1.79%); assay type: functional
[32] = system: A549; experiment: Induction of apoptosis in human A549 cells assessed as late apoptotic cells at 0.34 uM incubated for 48 hrs by Annexin V/PI staining based flow cytometry analysis (reference value: 2.96%); assay type: functional
[33] = system: A549; experiment: Induction of apoptosis in human A549 cells assessed as dead cells at 0.34 uM incubated for 48 hrs by Annexin V/PI staining based flow cytometry analysis (reference value: 4.58%); assay type: functional
[34] = system: A549; experiment: Induction of apoptosis in human A549 cells assessed as reduction in Bcl-2 protein expression at 0 to 0.34 uM measured after 48 hrs by Western blot analysis; assay type: functional, cell-based; conditions: dose 0-0.34 µM
[35] = system: A549; experiment: Induction of apoptosis in human A549 cells assessed as increase in caspase-3 protein expression at 0 to 0.34 uM measured after 48 hrs by Western blot analysis; assay type: functional, cell-based; conditions: dose 0-0.34 µM
[36] = system: A549; experiment: Induction of apoptosis in human A549 cells assessed as increase in BAX protein expression at 0 to 0.34 uM measured after 48 hrs by Western blot analysis; assay type: functional, cell-based; conditions: dose 0-0.34 µM
[37] = system: A549; experiment: Downregulation of phosphorylated JNK/JNK protein expression in human A549 cells at 0.11 to 0.34 uM measured after 48 hrs by Western blot analysis; assay type: functional, cell-based; conditions: dose 0.11-0.34 µM
[38] = system: A549; experiment: Downregulation of phosphorylated ERK/ERK protein expression in human A549 cells at 0.11 to 0.34 uM measured after 48 hrs by Western blot analysis; assay type: functional, cell-based; conditions: dose 0.11-0.34 µM
[39] = system: A549; experiment: Upregulation of phosphorylated p38/p38 protein expression in human A549 cells at 0.11 to 0.34 uM measured after 48 hrs by Western blot analysis; assay type: functional, cell-based; conditions: dose 0.11-0.34 µM

For `O=C1c2cc(F)c(Cl)cc2-n2c1nc1nc3ccccc3cc1c2=O`, the IC50 [1] was 0.43 µM, the IC50 [2] was 10.1 µM and the IC50 [3] was 0.4 µM.

Molecule `O=C1c2c(ccc(F)c2Cl)-n2c1nc1nc3ccccc3cc1c2=O` has an IC50 [1] of 0.53 µM, an IC50 [2] of 10.3 µM and an IC50 [3] of 0.33 µM.

Molecule `O=C1c2cc(F)ccc2-n2c1nc1nc3ccccc3cc1c2=O` has an IC50 [1] of 6.45 µM, an IC50 [2] of 10.1 µM and an IC50 [3] of 15 µM.

With `O=C1c2ccccc2-n2c1nc1cc3ccccc3cc1c2=O` [BENZO[K]TRYPTANTHRIN] the IC50 [1] was 10.3 µM, the IC50 [2] was 17.6 µM and the IC50 [3] was 13.5 µM.

Molecule `N/N=C1\c2ccccc2-n2c1nc1nc3ccccc3cc1c2=O` has an IC50 [1] greater than 100 µM, an IC50 [2] greater than 100 µM and an IC50 [3] greater than 100 µM.

`CC[C@@]1(O)C(=O)OCc2c1cc1n(c2=O)Cc2cc3ccccc3nc2-1` [CAMPTOTHECIN] gave an IC50 [1] of 0.39 µM.

For `O=C1c2ccccc2-n2c1nc1nc3ccccc3cc1c2=O`, the IC50 [1] was 0.34 µM, the IC50 [2] was 3.54 µM and the IC50 [3] was 25.2 µM. The IC50 [4] was 0.43 µM, the IC50 [5] was 0.34 µM and the IC50 [6] was 0.25 µM. The inhibition at 0.11 µM [7] was 22%, the inhibition at 0.22 µM [8] was 31% and the inhibition at 0.34 µM [9] was 38%. For the same molecule, the inhibition at 0.11 µM [10] was 50%, the inhibition at 0.22 µM [11] was 56% and the inhibition at 0.34 µM [12] was 60%. It also gave an Activity [13] of 72.8%, an Activity [14] of 5.59% and an Activity [15] of 22.63%. For the same molecule, the Activity [16] was 62.47%, the Activity [17] was 8.87% and the Activity [18] was 25.65%. For the same molecule, the Activity [19] was 60.39%, the Activity [20] was 9.58% and the Activity [21] was 29.02%. For the same molecule, the Activity [22] was 67.5%, the Activity [23] was 7.83% and the Activity [24] was 17.4%. It also gave an Activity [25] of 7.17%, an Activity [26] of 66.9% and an Activity [27] of 8.47%. The Activity [28] was 18%, the Activity [29] was 6.65% and the Activity [30] was 63.4%. The Activity [31] was 7.39%, the Activity [32] was 19.9% and the Activity [33] was 9.32%. The Activity [34] was “Active”, the Activity [35] was “Active” and the Activity [36] was “Active”. The Activity [37] was “Active”, the Activity [38] was “Active” and the Activity [39] was “Active”.

`O=c1c2cc3ccccc3nc2nc2n1-c1ccccc1/C2=N\O` was tested, and the IC50 [1] was greater than 100 µM, the IC50 [2] was greater than 100 µM and the IC50 [3] was greater than 100 µM.

Molecule `Cc1ccc2c(c1Cl)C(=O)c1nc3nc4ccccc4cc3c(=O)n1-2` has an IC50 [1] of 35.1 µM, an IC50 [2] of 1.95 µM and an IC50 [3] of 43.2 µM.
